We go through one molecule from BindingDB's records for doi:10.1016/S0960-894X(00)80511-9 (1992).

This experiment addresses Seed linoleate 13S-lipoxygenase-1 (Glycine max) (UniProt P08170). Put plainly: Inhibitory activity against soybean 15-lipoxygenase was evaluated.

Sequence of Seed linoleate 13S-lipoxygenase-1 (Glycine max) (P08170 whole entry, looked up): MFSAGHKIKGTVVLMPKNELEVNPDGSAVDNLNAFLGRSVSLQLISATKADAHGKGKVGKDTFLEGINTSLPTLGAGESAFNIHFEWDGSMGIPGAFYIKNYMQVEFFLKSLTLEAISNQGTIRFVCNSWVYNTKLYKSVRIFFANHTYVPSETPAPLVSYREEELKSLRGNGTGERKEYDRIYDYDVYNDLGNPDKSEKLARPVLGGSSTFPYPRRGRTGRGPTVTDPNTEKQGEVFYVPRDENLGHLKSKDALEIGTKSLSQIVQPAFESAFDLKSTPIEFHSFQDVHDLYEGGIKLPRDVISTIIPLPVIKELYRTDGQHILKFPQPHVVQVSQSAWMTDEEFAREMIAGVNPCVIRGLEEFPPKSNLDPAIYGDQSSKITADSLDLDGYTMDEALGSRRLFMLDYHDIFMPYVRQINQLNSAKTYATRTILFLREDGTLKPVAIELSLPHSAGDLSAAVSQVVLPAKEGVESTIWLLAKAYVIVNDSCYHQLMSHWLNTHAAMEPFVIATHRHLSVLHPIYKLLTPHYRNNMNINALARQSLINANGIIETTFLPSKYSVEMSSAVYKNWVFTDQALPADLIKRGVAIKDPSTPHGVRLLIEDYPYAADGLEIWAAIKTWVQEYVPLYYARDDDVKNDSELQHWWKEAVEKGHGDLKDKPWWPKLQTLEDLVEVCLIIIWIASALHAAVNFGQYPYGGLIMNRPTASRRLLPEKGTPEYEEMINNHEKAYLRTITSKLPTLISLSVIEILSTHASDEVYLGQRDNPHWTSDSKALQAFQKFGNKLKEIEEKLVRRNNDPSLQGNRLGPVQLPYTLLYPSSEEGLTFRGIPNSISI

The molecule `NC1=NN(c2cccc(C(F)(F)F)c2)CC1` [1-(3-Trifluoromethyl-phenyl)-4,5-dihydro-1H-pyrazol-3-ylamine] came in with a 50% inhibitory concentration (IC50) of 213 µM.
